Holding throughout (type): cell-based
The subject of one test is HS578T cells. The test can be described thus: MTT metabolization, inhibition of HS578T cell proliferation. Particulars: Homo sapiens, Hs-578T, read-out: Percentage inhibition Formula (III) mean. The procedure: These triple negative breast cancer cell lines were obtained from the American Type Culture Collection Cell Biology Collection (ATCC) (Manassas, Va.). The medium was changed every 2 days.
Cell proliferation and growth experiments were carried out using 3-(4,5-dimethylthiazol-2-yl)-2,5-diphenyltetrazolium bromide (MTT) uptake assays, where MTT is reduced to purple formazan by the mitochondria of living cells. Increase in cell number is detected by augmented MTT metabolization, and decrease in cell number is reflected by a decrease. […] The cells were treated with the drug at different concentrations to plot the dose-response curves in all cancer cell lines using in the study. […] After treatment, each well was replaced with 250 μL of fresh medium containing MTT ([…]) and incubated for 1 hour. The medium was then removed and 500 μL of dimethyl sulfoxide was added to each well. The plate was agitated in the dark for 5 minutes to dissolve the MTT-formazan crystals. The absorbance of the samples was recorded at 562 nm in a multi-well plate reader (BMG labtech). Results were plotted as the mean values of quadruplicates from a representative experiment that was repeated at least two independent times.
Combination index values less than 1 indicate synergism, values equal to 1 indicate an additive effect, whereas values greater than 1 indicate antagonism. Combination index values from three independent experiments were generated.

Test [1] relates to HS578T, BT549 and MDA-MB-231 cells. The test can be described thus: Apoptosis by Annexin V staining, single agent. The conditions noted are these: 500 nM, 24 and 48 hours. The procedure: Cell cycle analyses and evaluation of apoptosis were performed by flow cytometry using propidium iodide and Annexin V, respectively.
For apoptosis analyses, HS578T, BT549 and MDA-MB-231 cell monolayers were incubated in trypsin-EDTA, washed twice with cold PBS, and then resuspended in binding buffer (10 mM HEPES free acid [pH 7.4], 140 mM NaCl, 2.5 mM CaCl2) at a concentration of 1×10^6 cells per mL. A total of 1×10^5 cells were incubated for 15 minutes in the dark with Annexin V-APC (BD Biosciences) and propidium iodide (PI) staining solution (5 μL Annexin V-[…], 10 μL of PI [[…] final concentration], 400 μL binding buffer).

The subject of another test is MDA-MB-231 cells. The test can be described thus: Microarray analysis of mRNA and RT-PCR of DNA repair genes. The conditions noted are these: 500 nM, 24 h; confirmed by RT-PCR. How it is done:
MDA-MB-231 cells were grown in DMEM with 10% of FBS, and when 70% confluent, cells were treated with 500 nM Formula (III) for 24 h. Total RNA was extracted and purified using the RNeasy Mini Kit (Qiagen). Double-stranded cDNA and biotinylated cRNA were synthesized using a T7-polyT primer and the BioArray RNA labeling kit (Enzo Life Sciences, Farmingdale, N.Y.), respectively. The labeled RNA was fragmented and hybridized to human oligonucleotide arrays (Human Gene ST Arrays) (Affymetrix, Santa Clara, Calif.) according to manufacturers instructions. For the microarray data analysis, Affymetrix CEL files from each of the two microarray hybridization experiments for the two conditions [untreated control and treated with 500 nM Formula (III)] were imported into the dChip software (Dana Farber Cancer Institute, Boston, Mass.). […] The list of genes was analyzed using functional annotation bioinformatics microarray analysis (DAVID), and gene set enrichment analyses (GSEA). […]
Total RNA was extracted from cells with Rneasy Mini Kit (QIAGEN) as recommended by the supplier. cDNAs were synthesized from […] of total RNA by using RevertAid H Minus First Strand cDNA synthesis Kit (Fermentas) in a total volume of […]. […] Samples were analyzed in triplicate and mRNA expression was normalized to GADPH […] and quantified by the comparative cycle threshold (Ct) method. […]

Like-named read-outs stand apart in the source and are kept apart here.

In the case of `C[C@]12O[C@H](C[C@@H](O)[C@H]1O)n1c3ccccc3c3c4c(c5c6ccccc6n2c5c31)C(=O)NC4=O` [Formula (III)], the percent inhibition of cell proliferation at 0.1 µM with HS578T cells (Formula (III) 100 nM alone (Table 14)) came out at 76.2%; with HS578T cells (Formula (III) 100 nM alone (Table 15)), 93.5%. Moreover, the percent inhibition of cell proliferation at 0.12 µM in the test with HS578T cells (Formula (III) 120 nM alone (Table 12)) and in the test on HS578T cells (Formula (III) 120 nM alone) was 74.9% each time. The percent inhibition of cell proliferation at 0.18 µM with HS578T cells (Formula (III) 180 nM alone (Table 12)) and with HS578T cells (Formula (III) 180 nM alone) was 67.5% throughout. For the same compound, the percent inhibition of cell proliferation at 0.2 µM in the test with HS578T cells (Formula (III) 200 nM alone (Table 13)) was determined as 67.8%; with HS578T cells (Formula (III) 200 nM alone (Table 14)), 72.4%; in the test with HS578T cells (Formula (III) 200 nM alone (Table 15)) it was 77.6%. The percent inhibition of cell proliferation at 0.24 µM in the test with HS578T cells (Formula (III) 240 nM alone (Table 12)) and in the test with HS578T cells (Formula (III) 240 nM alone) was 50.8% in each case. For the same compound, the percent inhibition of cell proliferation at 0.26 µM with HS578T cells (Formula (III) 260 nM alone (Table 13)) was 59.9%. The percent inhibition of cell proliferation at 0.3 µM with HS578T cells (Formula (III) 300 nM alone (Table 12)) came to 46.8%; with HS578T cells (Formula (III) 300 nM alone (Table 13)) it was 52.2%; in the test on HS578T cells (Formula (III) 300 nM alone (Table 14)) it was 66.3%; with HS578T cells (Formula (III) 300 nM alone (Table 15)) it was 72.3%; in the test on HS578T cells (Formula (III) 300 nM alone), 46.8%. In the test on HS578T cells (Formula (III) 380 nM alone (Table 13)), the percent inhibition of cell proliferation at 0.38 µM was determined as 48.9%. Further, the percent inhibition of cell proliferation at 0.4 µM came to 57.4% with HS578T cells (Formula (III) 400 nM alone (Table 14)) and 66.6% in the test on HS578T cells (Formula (III) 400 nM alone (Table 15)). Also, the “apoptosis (Annexin V staining)” value in test [1] was “an increase at 48 hours, more evident in HS578T”. For the same compound, the “expression of genes involved in DNA repair” value in the test with MDA-MB-231 cells was “increased expression of genes involved in DNA repair”.
